From ChEMBL document CHEMBL4507274 (2021)
Activity calls are given as the source filed them. No cut-off for these calls is given here.

Key:
[1] = test system: Epidermal growth factor receptor (Homo sapiens), P00533 [T790M]; conditions: Compound concentration 100.0 nM
[2] = test system: Epidermal growth factor receptor (Homo sapiens), P00533 [G719C]; conditions: Compound concentration 100.0 nM
[3] = molecular target: Alpha-2C adrenergic receptor (Homo sapiens) (UniProt P18825); conditions: Compound concentration 10.0 uM
[4] = molecular target: Calcium/calmodulin-dependent protein kinase type II subunit beta (Homo sapiens) (UniProt Q13554); conditions: Compound concentration 100.0 nM
[5] = molecular target: Serine/threonine-protein kinase pim-1 (Homo sapiens) (UniProt P11309); experiment: Pim-1 (h) Upstate kinase activity assay; conditions: Compound concentration 10.0 uM
MCF7 = experiment: Breast MCF-7 cell line MDS Pharma Services Proliferation Assay; assay type: functional, cell-based, Homo sapiens
[6] = molecular target: T1, Dual specificity mitogen-activated protein kinase kinase 6 (Homo sapiens) (UniProt P52564); experiment: MKK6 (h) Upstate kinase activity assay; conditions: Compound concentration 10.0 uM
T1 sequence (whole entry): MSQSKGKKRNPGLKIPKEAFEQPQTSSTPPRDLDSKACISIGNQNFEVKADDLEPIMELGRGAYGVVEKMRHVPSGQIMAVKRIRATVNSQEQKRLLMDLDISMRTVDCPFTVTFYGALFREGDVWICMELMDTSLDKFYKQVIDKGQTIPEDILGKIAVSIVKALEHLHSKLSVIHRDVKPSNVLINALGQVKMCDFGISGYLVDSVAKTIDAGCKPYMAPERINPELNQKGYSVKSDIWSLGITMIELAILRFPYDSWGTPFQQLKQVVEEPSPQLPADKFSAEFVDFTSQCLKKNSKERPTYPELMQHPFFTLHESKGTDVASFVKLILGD

[7] = Mechanistic tissue assay (arteria saphena rabbit); assay type: tissue-based, Oryctolagus cuniculus, Saphenous artery
[8] = molecular target: Proto-oncogene tyrosine-protein kinase ROS (Homo sapiens) (UniProt P08922); experiment: Ros (h) Upstate kinase activity assay; conditions: Compound concentration 10.0 uM
[9] = molecular target: 5-hydroxytryptamine receptor 1A (Homo sapiens) (UniProt P08908); conditions: Compound concentration 10.0 uM
[10] = molecular target: Glycogen synthase kinase-3 alpha (Homo sapiens) (UniProt P49840); experiment: GSK3alpha (h) Upstate kinase activity assay; conditions: Compound concentration 10.0 uM
[11] = molecular target: Protein kinase C eta type (Homo sapiens) (UniProt P24723); experiment: PKCeta (h) Upstate kinase activity assay; conditions: Compound concentration 10.0 uM
PC-3 = experiment: Prostate PC-3 cell line MDS Pharma Services Proliferation Assay; assay type: functional, cell-based, Homo sapiens
[12] = molecular target: D(3) dopamine receptor (Homo sapiens) (UniProt P35462); conditions: Compound concentration 10.0 uM
[13] = molecular target: Ribosomal protein S6 kinase beta-1 (Homo sapiens) (UniProt P23443); experiment: […] (h) Upstate kinase activity assay; conditions: Compound concentration 10.0 uM
DLD-1 = experiment: Colon DLD-1 cell line MDS Pharma Services Proliferation Assay; assay type: functional, cell-based, Homo sapiens
[14] = test system: Tyrosine-protein kinase ABL1 (Homo sapiens), P00519 [T315I]; experiment: Abl(T315I) (h) Upstate kinase activity assay; conditions: Compound concentration 10.0 uM
[15] = molecular target: T2, Serine/threonine-protein kinase Chk1 (Homo sapiens) (UniProt O14757); experiment: CHK1 (h) Upstate kinase activity assay; conditions: Compound concentration 10.0 uM
T2 sequence (whole entry): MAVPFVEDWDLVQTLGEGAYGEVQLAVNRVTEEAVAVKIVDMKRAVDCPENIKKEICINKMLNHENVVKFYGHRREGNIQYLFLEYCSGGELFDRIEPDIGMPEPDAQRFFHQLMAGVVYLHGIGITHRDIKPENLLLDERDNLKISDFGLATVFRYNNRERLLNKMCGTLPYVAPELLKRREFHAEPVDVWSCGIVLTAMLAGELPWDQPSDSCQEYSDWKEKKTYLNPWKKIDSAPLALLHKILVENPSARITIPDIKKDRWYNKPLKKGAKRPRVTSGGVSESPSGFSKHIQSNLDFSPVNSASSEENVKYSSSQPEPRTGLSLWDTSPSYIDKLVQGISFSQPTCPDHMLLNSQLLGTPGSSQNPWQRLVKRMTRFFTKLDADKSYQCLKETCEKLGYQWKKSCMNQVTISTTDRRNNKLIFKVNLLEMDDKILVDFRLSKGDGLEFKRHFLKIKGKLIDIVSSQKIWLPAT

[16] = molecular target: Macrophage colony-stimulating factor 1 receptor (Homo sapiens) (UniProt P07333); experiment: Fms (h) Upstate kinase activity assay; conditions: Compound concentration 10.0 uM
[17] = molecular target: Sigma non-opioid intracellular receptor 1 (Homo sapiens, UniProt Q99720); experiment: GPCRScan assay: inhibition of Sigma 1; design: radioligand conc. used [nm] 4.0 – 5.0, parental cells HEKT
[18] = molecular target: Platelet-derived growth factor receptor alpha (Homo sapiens) (UniProt P16234); experiment: PDGFRalpha (h) Upstate kinase activity assay; conditions: Compound concentration 10.0 uM
[19] = molecular target: cAMP-dependent protein kinase catalytic subunit alpha (Homo sapiens) (UniProt P17612); experiment: PKA (h) Upstate kinase activity assay; conditions: Compound concentration 10.0 uM
[20] = molecular target: Ribosomal protein S6 kinase alpha-1 (Homo sapiens) (UniProt Q15418); experiment: Rsk1 (h) Upstate kinase activity assay; conditions: Compound concentration 10.0 uM
U-937 = experiment: Lymphoma U937 cell line MDS Pharma Services Proliferation Assay; assay type: functional, cell-based, Homo sapiens
[21] = molecular target: Serine/threonine-protein kinase PAK 2 (Homo sapiens) (UniProt Q13177); experiment: PAK2 (h) Upstate kinase activity assay; conditions: Compound concentration 10.0 uM

Chain of Sigma non-opioid intracellular receptor 1 (Q99720 whole entry): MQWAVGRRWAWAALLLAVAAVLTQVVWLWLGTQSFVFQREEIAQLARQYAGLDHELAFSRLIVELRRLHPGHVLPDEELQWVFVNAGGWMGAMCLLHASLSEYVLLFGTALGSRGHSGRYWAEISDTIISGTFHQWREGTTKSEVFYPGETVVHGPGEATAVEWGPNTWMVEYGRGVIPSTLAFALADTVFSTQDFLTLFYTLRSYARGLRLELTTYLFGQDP
Chain of Ribosomal protein S6 kinase alpha-1 (Homo sapiens) (Q15418 whole entry): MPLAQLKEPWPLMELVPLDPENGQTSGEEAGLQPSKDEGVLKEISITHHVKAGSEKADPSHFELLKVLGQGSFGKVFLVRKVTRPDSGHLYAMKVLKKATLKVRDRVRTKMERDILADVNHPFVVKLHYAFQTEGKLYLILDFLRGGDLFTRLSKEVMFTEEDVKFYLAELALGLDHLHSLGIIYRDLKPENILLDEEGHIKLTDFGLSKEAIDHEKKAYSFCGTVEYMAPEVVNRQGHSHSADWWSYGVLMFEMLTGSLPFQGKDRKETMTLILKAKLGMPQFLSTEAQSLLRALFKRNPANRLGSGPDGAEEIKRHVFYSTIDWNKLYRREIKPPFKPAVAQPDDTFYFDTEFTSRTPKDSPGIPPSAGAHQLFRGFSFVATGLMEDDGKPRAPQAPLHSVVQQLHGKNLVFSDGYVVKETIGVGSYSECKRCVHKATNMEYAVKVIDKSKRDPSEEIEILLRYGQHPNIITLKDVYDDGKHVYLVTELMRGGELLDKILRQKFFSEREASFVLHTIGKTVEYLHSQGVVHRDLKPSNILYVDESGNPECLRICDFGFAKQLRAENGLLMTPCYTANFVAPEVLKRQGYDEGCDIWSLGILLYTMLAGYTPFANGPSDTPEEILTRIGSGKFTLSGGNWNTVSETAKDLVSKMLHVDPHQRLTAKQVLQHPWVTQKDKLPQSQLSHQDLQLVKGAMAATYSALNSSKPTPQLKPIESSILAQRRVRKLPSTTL
Chain of 5-hydroxytryptamine receptor 1A (Homo sapiens) (P08908 whole entry): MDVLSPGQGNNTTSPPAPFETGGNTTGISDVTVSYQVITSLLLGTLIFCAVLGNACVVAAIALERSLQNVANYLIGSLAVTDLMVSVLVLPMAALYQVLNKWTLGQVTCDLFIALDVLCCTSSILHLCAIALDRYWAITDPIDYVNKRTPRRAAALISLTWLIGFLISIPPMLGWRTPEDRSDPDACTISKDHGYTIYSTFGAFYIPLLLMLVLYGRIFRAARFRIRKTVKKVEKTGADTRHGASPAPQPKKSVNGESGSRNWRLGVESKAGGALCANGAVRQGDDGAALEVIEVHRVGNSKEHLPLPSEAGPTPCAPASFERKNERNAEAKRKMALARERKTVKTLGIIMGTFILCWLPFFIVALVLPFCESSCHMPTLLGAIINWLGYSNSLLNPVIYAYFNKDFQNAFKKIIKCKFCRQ
Chain of Platelet-derived growth factor receptor alpha (Homo sapiens) (P16234 whole entry): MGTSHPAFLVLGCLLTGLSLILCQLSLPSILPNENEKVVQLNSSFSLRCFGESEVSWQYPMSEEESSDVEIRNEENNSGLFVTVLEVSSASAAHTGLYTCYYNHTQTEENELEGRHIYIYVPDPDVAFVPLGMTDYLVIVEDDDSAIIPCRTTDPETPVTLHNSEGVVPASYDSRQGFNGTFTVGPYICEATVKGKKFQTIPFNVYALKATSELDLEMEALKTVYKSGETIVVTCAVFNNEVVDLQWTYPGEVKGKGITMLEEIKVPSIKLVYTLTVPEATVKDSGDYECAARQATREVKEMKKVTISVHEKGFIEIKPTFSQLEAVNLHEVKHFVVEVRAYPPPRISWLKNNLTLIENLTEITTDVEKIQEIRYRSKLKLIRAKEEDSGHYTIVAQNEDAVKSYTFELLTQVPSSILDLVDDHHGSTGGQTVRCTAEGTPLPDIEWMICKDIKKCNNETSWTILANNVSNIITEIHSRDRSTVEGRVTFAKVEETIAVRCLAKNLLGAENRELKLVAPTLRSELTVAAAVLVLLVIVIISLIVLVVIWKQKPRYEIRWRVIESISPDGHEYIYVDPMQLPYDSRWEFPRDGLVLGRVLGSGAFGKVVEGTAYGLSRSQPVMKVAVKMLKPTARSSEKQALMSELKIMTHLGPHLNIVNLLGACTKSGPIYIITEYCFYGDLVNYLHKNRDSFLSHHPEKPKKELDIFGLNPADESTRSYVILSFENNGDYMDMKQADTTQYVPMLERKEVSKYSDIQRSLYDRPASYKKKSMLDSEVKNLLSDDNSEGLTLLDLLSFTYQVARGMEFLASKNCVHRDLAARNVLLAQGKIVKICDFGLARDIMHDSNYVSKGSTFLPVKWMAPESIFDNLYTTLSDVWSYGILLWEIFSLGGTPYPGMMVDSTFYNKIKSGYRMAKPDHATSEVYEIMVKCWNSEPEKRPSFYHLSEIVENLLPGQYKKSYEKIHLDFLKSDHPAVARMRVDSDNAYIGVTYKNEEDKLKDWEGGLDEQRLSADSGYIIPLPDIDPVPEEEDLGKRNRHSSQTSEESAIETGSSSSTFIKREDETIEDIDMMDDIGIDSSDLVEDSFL
Chain of Serine/threonine-protein kinase pim-1 (Homo sapiens) (P11309 whole entry, looked up): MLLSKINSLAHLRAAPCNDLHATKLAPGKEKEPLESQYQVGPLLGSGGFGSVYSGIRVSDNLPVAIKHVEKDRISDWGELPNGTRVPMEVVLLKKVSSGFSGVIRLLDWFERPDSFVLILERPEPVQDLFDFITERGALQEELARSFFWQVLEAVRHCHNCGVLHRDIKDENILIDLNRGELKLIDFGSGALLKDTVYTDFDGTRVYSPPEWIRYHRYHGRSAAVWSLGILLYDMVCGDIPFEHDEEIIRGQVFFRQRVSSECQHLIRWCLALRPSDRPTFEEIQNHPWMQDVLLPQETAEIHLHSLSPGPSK
Chain of Glycogen synthase kinase-3 alpha (Homo sapiens) (P49840 2-483 limits assumed): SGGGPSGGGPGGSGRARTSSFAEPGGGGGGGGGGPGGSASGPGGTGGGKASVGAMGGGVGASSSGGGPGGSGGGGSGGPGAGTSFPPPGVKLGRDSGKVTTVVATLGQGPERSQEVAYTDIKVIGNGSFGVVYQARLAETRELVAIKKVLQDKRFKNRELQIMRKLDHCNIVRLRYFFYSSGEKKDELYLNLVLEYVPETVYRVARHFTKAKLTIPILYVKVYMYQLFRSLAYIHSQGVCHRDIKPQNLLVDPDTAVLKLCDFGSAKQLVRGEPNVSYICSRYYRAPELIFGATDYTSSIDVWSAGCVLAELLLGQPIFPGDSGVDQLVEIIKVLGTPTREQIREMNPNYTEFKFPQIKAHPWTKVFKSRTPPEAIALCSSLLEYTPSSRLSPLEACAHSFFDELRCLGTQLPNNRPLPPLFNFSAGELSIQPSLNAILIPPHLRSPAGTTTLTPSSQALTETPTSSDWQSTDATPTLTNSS
Chain of Protein kinase C eta type (Homo sapiens) (P24723 whole entry): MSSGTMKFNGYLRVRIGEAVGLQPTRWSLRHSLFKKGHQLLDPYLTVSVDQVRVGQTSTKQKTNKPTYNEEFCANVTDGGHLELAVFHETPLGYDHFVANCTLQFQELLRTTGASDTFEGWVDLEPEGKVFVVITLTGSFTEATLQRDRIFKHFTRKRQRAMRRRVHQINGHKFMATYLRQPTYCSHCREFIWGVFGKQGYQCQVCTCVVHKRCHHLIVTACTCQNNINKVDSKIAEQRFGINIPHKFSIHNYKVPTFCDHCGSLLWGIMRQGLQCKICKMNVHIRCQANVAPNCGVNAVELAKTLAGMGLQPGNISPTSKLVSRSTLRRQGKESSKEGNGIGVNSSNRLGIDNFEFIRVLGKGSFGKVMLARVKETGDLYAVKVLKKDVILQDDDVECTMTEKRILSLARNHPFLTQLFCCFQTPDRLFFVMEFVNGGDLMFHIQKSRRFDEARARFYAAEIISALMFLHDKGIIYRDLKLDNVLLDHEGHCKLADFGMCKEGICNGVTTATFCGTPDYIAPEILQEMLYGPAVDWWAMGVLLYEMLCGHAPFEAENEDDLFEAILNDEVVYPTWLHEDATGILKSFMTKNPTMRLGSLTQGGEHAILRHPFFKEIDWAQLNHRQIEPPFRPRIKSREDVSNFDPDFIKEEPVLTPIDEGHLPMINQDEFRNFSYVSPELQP
Chain of Macrophage colony-stimulating factor 1 receptor (Homo sapiens) (P07333 whole entry): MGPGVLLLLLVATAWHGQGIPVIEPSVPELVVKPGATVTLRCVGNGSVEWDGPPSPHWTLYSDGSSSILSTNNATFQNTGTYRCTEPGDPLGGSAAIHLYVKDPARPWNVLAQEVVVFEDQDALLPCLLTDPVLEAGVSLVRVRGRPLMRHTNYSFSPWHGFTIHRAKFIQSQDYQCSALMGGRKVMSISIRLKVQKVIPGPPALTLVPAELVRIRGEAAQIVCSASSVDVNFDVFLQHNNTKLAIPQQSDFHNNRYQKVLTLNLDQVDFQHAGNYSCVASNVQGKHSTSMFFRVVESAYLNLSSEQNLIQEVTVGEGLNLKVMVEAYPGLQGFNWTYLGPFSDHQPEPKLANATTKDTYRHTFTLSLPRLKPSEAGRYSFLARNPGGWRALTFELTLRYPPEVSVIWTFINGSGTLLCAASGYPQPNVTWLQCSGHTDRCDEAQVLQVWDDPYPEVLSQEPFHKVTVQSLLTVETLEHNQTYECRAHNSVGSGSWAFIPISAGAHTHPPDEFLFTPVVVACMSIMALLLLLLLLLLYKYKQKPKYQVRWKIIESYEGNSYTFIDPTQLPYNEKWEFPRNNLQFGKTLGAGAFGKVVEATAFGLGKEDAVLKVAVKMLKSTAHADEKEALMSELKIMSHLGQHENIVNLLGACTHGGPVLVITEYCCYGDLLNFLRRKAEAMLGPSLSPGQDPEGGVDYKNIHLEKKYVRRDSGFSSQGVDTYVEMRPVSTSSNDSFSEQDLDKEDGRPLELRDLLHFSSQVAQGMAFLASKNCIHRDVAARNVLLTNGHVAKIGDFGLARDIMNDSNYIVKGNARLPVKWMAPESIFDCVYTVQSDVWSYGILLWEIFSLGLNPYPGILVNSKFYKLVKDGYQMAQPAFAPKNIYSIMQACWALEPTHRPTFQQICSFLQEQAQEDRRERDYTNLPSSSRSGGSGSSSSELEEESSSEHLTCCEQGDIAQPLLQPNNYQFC

Compound: Cn1cc(Cl)c2c(Oc3c(F)cc(Nc4cc(Cl)nc(N)n4)cc3F)ccnc21 [BAY-4900]
- residual activity [1]: 88%
- residual activity [2]: 95%
- inhibition [3]: -6.8%
- residual activity [4]: 100%

Compound: Cc1c[nH]c2nccc(Oc3c(F)cc(Nc4cc(Cl)nc(N)n4)cc3F)c12 [BAY-549]
- inhibition [5]: 20%
- TGI (MCF7; Homo sapiens, MCF7): > 100 µM
- CC50 (MCF7; Homo sapiens, MCF7, read-out: LC50 (the source's name)): > 100 µM
- Mean % growth (n = 2) for 1.0 µM probe concentration (MCF7; ± SEM 1 % growth): 87%
- Mean % growth (n = 2) for 10.0 µM probe concentration (MCF7; ± SEM 2 % growth): 57%
- Mean % growth (n = 2) for 0.01 µM probe concentration (MCF7; ± SEM 3 % growth): 92%
- Mean % growth (n = 2) for 100.0 µM probe concentration (MCF7; ± SEM 4 % growth): 6%
- Mean % growth (n = 2) for 0.1 µM probe concentration (MCF7; ± SEM 9 % growth): 89%
- inhibition [6]: 6%
- IC50 [7]: 0.065 µM (active)
- inhibition [8]: 10%
- inhibition [9]: 11.7%
- inhibition [10]: 13%
- inhibition [11]: 24%
- IC50 (PC-3; Homo sapiens, PC-3): 9.4 µM
- TGI (PC-3; Homo sapiens, PC-3): > 100 µM
- CC50 (PC-3; Homo sapiens, PC-3, read-out: LC50 (the source's name)): > 100 µM
- Mean % growth (n = 2) for 10.0 µM probe concentration (PC-3; ± SEM 1 % growth): 48%
- Mean % growth (n = 2) for 0.01 µM probe concentration (PC-3; ± SEM 2 % growth): 97%
- Mean % growth (n = 2) for 1.0 µM probe concentration (PC-3; ± SEM 3 % growth): 58%
- Mean % growth (n = 2) for 100.0 µM probe concentration (PC-3; ± SEM 3 % growth): 29%
- Mean % growth (n = 2) for 0.1 µM probe concentration (PC-3; ± SEM 5 % growth): 102%
- inhibition [12]: -5.8%
- inhibition [13]: 84%
- Mean % growth (n = 2) for 0.01 µM probe concentration (DLD-1): 101%
- IC50 (DLD-1; Homo sapiens, DLD-1): 2.4 µM
- TGI (DLD-1; Homo sapiens, DLD-1): > 100 µM
- CC50 (DLD-1; Homo sapiens, DLD-1, read-out: LC50 (the source's name)): > 100 µM
- Mean % growth (n = 2) for 10.0 µM probe concentration (DLD-1; ± SEM 1 % growth): 24%
- Mean % growth (n = 2) for 100.0 µM probe concentration (DLD-1; ± SEM 1 % growth): 5%
- Mean % growth (n = 2) for 0.1 µM probe concentration (DLD-1; ± SEM 2 % growth): 94%
- Mean % growth (n = 2) for 1.0 µM probe concentration (DLD-1; ± SEM 4 % growth): 66%
- inhibition [14]: 28%
- inhibition [15]: 9%
- inhibition [16]: 64%
- Ki [17]: 6.77 µM
- inhibition [18]: 3%
- inhibition [19]: 95%
- inhibition [20]: 72%
- IC50 (U-937; Homo sapiens, U-937): 14 µM
- TGI (U-937; Homo sapiens, U-937): > 100 µM
- CC50 (U-937; Homo sapiens, U-937, read-out: LC50 (the source's name)): > 100 µM
- Mean % growth (n = 2) for 0.01 µM probe concentration (U-937; ± SEM 1 % growth): 101%
- Mean % growth (n = 2) for 0.1 µM probe concentration (U-937; ± SEM 2 % growth): 103%
- Mean % growth (n = 2) for 1.0 µM probe concentration (U-937; ± SEM 2 % growth): 104%
- Mean % growth (n = 2) for 100.0 µM probe concentration (U-937; ± SEM 5 % growth): 17%
- Mean % growth (n = 2) for 10.0 µM probe concentration (U-937; ± SEM 7 % growth): 56%
- inhibition [21]: 2%
